The term melting point denotes the temperature, or range, at which the solid turns liquid. For the molecule `CCCN(C)c1ncnc2[nH]c(-c3ccc(CN4CCN(C)CC4)cc3)cc12` [Example 1, methyl-{6-[4-(4-methyl-piperazin-1-ylmethyl)phenyl]-7H-pyrrolo[2,3-d]pyrimidin-4-yl}-propylamine], the melting point is 220 to 221 °C.
On to `CN1CCN(C(=O)c2ccc(-c3cc4c(N5CCN(C)CC5)ncnc4[nH]3)cc2)CC1` [Example 8, (4-Methyl-piperazin-1-yl)-{4-[4-(4-methyl-piperazin-1-yl)-7H-pyrrolo[2,3-d]pyrimidin-6-yl]-phenyl}-methanone], for which the melting point lay in the range of 243 to 245 °C.
With `CNC(=O)c1ccc(-c2cc3c(NC)ncnc3[nH]2)cc1` [Example 21, N-Methyl-4-(4-methylamino-7H-pyrrolo[2,3-d]pyrimidin-6-yl)-benzamide] the figure was greater than 300 °C.
With `CN(C)CCNc1ncnc2[nH]c(-c3ccc(C(=O)N4CCN(C)CC4)cc3)cc12` [Example 22, {4-[4-(2-Dimethylamino-ethylamino)-7H-pyrrolo[2,3-d]pyrimidin-6-yl]-phenyl}-(4-methyl-piperazin-1-yl)-methanone] the figure was 268 to 270 °C.
The molecule `CCCCOCc1ccc(-c2cc3c(N(C)C)ncnc3[nH]2)cc1` [Example 26, [6-(4-Butoxymethyl-phenyl)-7H-pyrrolo[2,3-d]pyrimidin-4-yl]-dimethyl-amine] returned a melting point of 186 to 188 °C.
As for `CCC(O)(CC)c1ccc(-c2cc3c(NCCCN4CCOCC4)ncnc3[nH]2)cc1` [Example 30], the melting point was 175 to 177 °C.
With `COCCN(CCOC)c1ncnc2[nH]c(-c3ccc(C(C)(C)O)cc3)cc12` [Example 31, 2-(4-{4-[Bis-(2-methoxy-ethyl)-amino]-7H-pyrrolo[2,3-d]pyrimidin-6-yl}-phenyl)-propan-2-ol] the figure was 165 to 167 °C; with `CCC(O)(CC)c1ccc(-c2cc3c(N(CCOC)CCOC)ncnc3[nH]2)cc1` [Example 32, 3-(4-{4-[Bis-(2-methoxy-ethyl)-amino]-7H-pyrrolo[2,3-d]pyrimidin-6-yl}-phenyl)-pentan-3-ol], 83 to 85 °C.

These data come from US7625894B2, “Pyrrolo[2,3-d]Pyrimidines as Protein Tyrosine Kinase Inhibitors” (Novartis AG, priority 2004, dated 2009).
